ChEMBL document CHEMBL5233247, “Recent advances in DNA gyrase-targeted antimicrobial agents” (Eur J Med Chem, 2020)
In brackets after ≈: the same amount, converted by molar mass. Several values for one entry are separate records, joined by “and”; a condition that tells them apart may be missing. Equal values may be shown once. One block for each compound: values may come before it.

Experiments:
[1] = system: Enterococcus faecalis; experiment: Antimicrobial activity against vancomycin-sensitive Enterococcus faecalis assessed as inhibition of bacterial growth by CLSI broth micro plate assay; type: functional
[2] = system: Enterococcus faecalis; experiment: Antimicrobial activity against vancomycin-resistant Enterococcus faecalis assessed as inhibition of bacterial growth by CLSI broth micro plate assay; type: functional
[3] = system: Staphylococcus aureus; experiment: Antimicrobial activity against methicillin-sensitive Staphylococcus aureus assessed as inhibition of bacterial growth by CLSI broth micro plate assay; type: functional
[4] = system: Staphylococcus aureus; experiment: Antimicrobial activity against methicillin-resistant Staphylococcus aureus assessed as inhibition of bacterial growth by CLSI broth micro plate assay; type: functional
[5] = target: DNA gyrase (Staphylococcus aureus, UniProt P0A0K8+P20831); experiment: Inhibition of Staphylococcus aureus DNA gyrase assessed as relaxation of pBR322 DNA by supercoiling assay; type: protein-complex assay
[6] = system: Escherichia coli; experiment: Antibacterial activity against Escherichia coli; type: functional
[7] = system: Bacillus subtilis; experiment: Antibacterial activity against Bacillus subtilis; type: functional
[8] = system: Micrococcus luteus; experiment: Antibacterial activity against Micrococcus luteus; type: functional
[9] = system: Salmonella typhimurium; experiment: Antibacterial activity against Salmonella typhimurium; type: functional, Salmonella enterica subsp. enterica serovar Typhimurium; details: Salmonella enterica
[10] = system: Staphylococcus aureus; experiment: Antimicrobial activity against Staphylococcus aureus ATCC 4163 incubated for by the twofold serial agar dilution technique; type: functional
[11] = system: Staphylococcus aureus; experiment: Antimicrobial activity against Staphylococcus aureus ATCC 25923 incubated for by the twofold serial agar dilution technique; type: functional
[12] = system: Staphylococcus aureus; experiment: Antimicrobial activity against Staphylococcus aureus ATCC 29213 incubated for by the twofold serial agar dilution technique; type: functional
[13] = system: Staphylococcus aureus; experiment: Antimicrobial activity against Staphylococcus aureus ATCC 6538 incubated for by the twofold serial agar dilution technique; type: functional
[14] = system: Bacillus cereus; experiment: Antimicrobial activity against Bacillus cereus ATCC 11778 incubated for by the twofold serial agar dilution technique; type: functional
[15] = system: Staphylococcus epidermidis; experiment: Antimicrobial activity against Staphylococcus epidermidis ATCC 12228 incubated for by the twofold serial agar dilution technique; type: functional
[16] = system: Bacillus subtilis; experiment: Antimicrobial activity against Bacillus subtilis ATCC 6633 incubated for by the twofold serial agar dilution technique; type: functional
[17] = system: Micrococcus luteus; experiment: Antimicrobial activity against Micrococcus luteus ATCC 9341 incubated for by the twofold serial agar dilution technique; type: functional
[18] = system: Micrococcus luteus; experiment: Antimicrobial activity against Micrococcus luteus ATCC 10240 incubated for by the twofold serial agar dilution technique; type: functional
[19] = system: Staphylococcus aureus; experiment: Antimicrobial activity against methicillin-resistant Staphylococcus aureus MTCC 96; type: functional

Structure (SMILES): COc1cc2c(cc1OCCCC(=O)Nc1cc(NC(=O)c3ccc4sccc4c3)n(C)c1)N=C[C@@H]1CCCN1C2=O
MIC [1]: 0.5 µg/mL (≈ 0.854 µM)
MIC [2]: 0.5 µg/mL (≈ 0.854 µM)
MIC [3]: 0.5 µg/mL (≈ 0.854 µM)
MIC [4]: 0.5 µg/mL (≈ 0.854 µM)
IC50 [5]: 1620 nM

MIC [6]: 0.14 µM (≈ 0.125 µg/mL)
MIC [7]: 0.28 µM (≈ 0.251 µg/mL)
MIC [8]: 0.238 µM and 0.112 µM
MIC [9]: 0.07 µM (≈ 0.0626 µg/mL)
Structure (SMILES): COc1c(NC(=O)c2ccc(NC(=O)c3ccc(NC(=O)[C@H](CC#N)NC(=O)c4ccc(NC(=O)/C(C)=C/c5ccc(C(F)(F)F)cc5)cc4)cc3)c(OC)c2O)ccc(C(=O)O)c1O

MIC [10]: 6.25 µg/mL (≈ 17.2 µM)
MIC [11]: 6.25 µg/mL (≈ 17.2 µM)
MIC [12]: 6.25 µg/mL (≈ 17.2 µM)
MIC [13]: 6.25 µg/mL (≈ 17.2 µM)
MIC [14]: 6.25 µg/mL (≈ 17.2 µM)
MIC [15]: 12.5 µg/mL (≈ 34.3 µM)
MIC [16]: 12.5 µg/mL (≈ 34.3 µM)
MIC [17]: 6.25 µg/mL (≈ 17.2 µM)
MIC [18]: 6.25 µg/mL (≈ 17.2 µM)
Structure (SMILES): S=C(NCCc1c[nH]c2ccccc12)Nc1ccc(Cl)c(Cl)c1

Structure (SMILES): Cc1ccc(C(=O)Nc2ccc(NC(=O)CCC(=O)NN)cc2)o1
MIC [19]: 18.9 µM (≈ 6.25 µg/mL)
